Our source for the Ki values is ChEMBL document CHEMBL4002567, “Rational design and synthesis of 1,5-disubstituted tetrazoles as potent inhibitors of the MDM2-p53 interaction” (Eur J Med Chem, 2017).

SMILES strings stand for the structures.

Experiment [1] addresses T1, Protein Mdm4 (Homo sapiens, UniProt O15151).
T1 sequence (O15151 whole entry): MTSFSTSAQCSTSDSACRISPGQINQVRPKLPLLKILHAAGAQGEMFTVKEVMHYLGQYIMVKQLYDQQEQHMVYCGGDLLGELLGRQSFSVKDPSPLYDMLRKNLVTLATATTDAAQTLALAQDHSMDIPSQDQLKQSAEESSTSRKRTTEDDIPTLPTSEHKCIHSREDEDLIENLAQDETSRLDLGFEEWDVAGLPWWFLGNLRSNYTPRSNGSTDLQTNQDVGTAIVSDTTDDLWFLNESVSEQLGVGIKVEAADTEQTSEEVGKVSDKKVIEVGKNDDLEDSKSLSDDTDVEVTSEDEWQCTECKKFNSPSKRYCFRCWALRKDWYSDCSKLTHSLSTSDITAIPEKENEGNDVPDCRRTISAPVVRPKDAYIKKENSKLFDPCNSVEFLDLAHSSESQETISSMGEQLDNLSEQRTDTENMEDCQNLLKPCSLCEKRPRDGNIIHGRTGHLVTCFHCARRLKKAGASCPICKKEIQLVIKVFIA

Experiment [2] addresses E3 ubiquitin-protein ligase Mdm2 (Homo sapiens, UniProt Q00987).

Sequence of E3 ubiquitin-protein ligase Mdm2 (Q00987 whole entry): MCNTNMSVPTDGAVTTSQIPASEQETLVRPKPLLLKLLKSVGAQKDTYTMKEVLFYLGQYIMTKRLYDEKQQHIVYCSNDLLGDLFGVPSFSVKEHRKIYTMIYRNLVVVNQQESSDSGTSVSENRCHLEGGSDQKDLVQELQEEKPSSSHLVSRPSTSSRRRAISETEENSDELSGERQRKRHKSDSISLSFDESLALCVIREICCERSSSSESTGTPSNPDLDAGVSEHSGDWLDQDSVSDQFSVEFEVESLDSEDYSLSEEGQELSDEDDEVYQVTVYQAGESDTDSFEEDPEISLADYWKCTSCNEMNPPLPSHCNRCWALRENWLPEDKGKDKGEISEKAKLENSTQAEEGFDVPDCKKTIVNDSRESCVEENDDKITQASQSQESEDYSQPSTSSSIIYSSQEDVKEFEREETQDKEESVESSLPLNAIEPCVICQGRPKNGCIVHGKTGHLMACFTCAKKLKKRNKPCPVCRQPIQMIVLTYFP

Regarding `CCOC(=O)c1[nH]c2cc(Cl)ccc2c1C(NC1CCCC1)c1nnnn1-c1ccc(OCc2ccccc2)cc1` (stereo unspecified), the Ki result in experiment [1] and in experiment [2] was “Not Active” each time.
As for `CCCCCNC(c1c(C(=O)OCC)[nH]c2cc(Cl)ccc12)c1nnnn1-c1ccc(Cl)cc1` (stereo unspecified), the Ki result in experiment [1] and in experiment [2] was “Not Active” each time.
Regarding `CCOC(=O)c1[nH]c2cc(Cl)ccc2c1C(NC1CCCCCC1)c1nnnn1-c1cccc(OCc2ccccc2)c1` (stereo unspecified), the Ki result in experiment [1] and in experiment [2] was “Not Active” each time.
